Test results as given in patent publication US10681909B2, “Herbicidal triazoles” (FMC Corporation, priority 2014, dated 2020).

How the values were obtained:
canarygrass = test: Test D preemergence; format: in vivo, Phalaris minor; details: for Plant response rating: Canarygrass: scale 0 to 100; for Plant response rating (0 to 100), Canarygrass: 16 g ai/ha, 0 is no effect, 100 is complete control
Excerpt: (§1) Seeds of plant species selected from bluegrass (annual bluegrass, Poa annua), blackgrass (Alopecurus myosuroides), canarygrass (Phalaris minor), chickweed (common chickweed, Stellaria media), galium (catchweed bedstraw, Galium aparine), bromegrass, down (downy bromegrass, Bromus tectorum), Russian thistle (Salsola kali), field poppy (Papaver rhoeas), field violet (Viola arvensis), foxtail, green (green foxtail, Setaria viridis), deadnettle (henbit deadnettle, Lamium amplexicaule), ryegrass, Ital. (Italian ryegrass, Lolium multiflorum), kochia (Kochia scoparia), lambsquarters (Chenopodium album), oilseed rape (Brassica napus), pigweed (Amaranthus retroflexus), chamomile (scentless chamomile, Matricaria inodora), speedwell (bird's-eye speedwell, Veronica persica), barley, spring (spring barley, Hordeum vulgare), wheat, spring (spring wheat, Triticum aestivum), buckwheat, wild (wild buckwheat, Polygonum convolvulus), wild mustard (Sinapis arvensis), oat, wild (wild oat, Avena fatua), radish, wild (wild radish, Raphanus raphanistrum), […]), barley, winter (winter barley, Hordeum vulgare), and wheat, winter (winter wheat, Triticum aestivum) were planted into a silt loam soil and treated preemergence with test chemicals formulated in a non-phytotoxic solvent mixture which included a surfactant. At the same time, these species were planted in pots containing Sunshine Redi-Earth® planting medium comprising spaghnum peat moss, vermiculite, starter nutrients and dolomitic limestone and treated with postemergence applications of the test chemicals formulated in the same manner. Plants ranged in height from 2 to 18 cm (1- to 4-leaf stage). Treated plants and controls were maintained in a controlled growth environment for 14 to 21 d after which time all species were compared to controls and visually evaluated. […] A dash (-) response means no test result.

barley, spring = test: Test D postemergence; format: in vivo, Hordeum vulgare; details: scale 0 to 100
Excerpt: as §1

barley, winter = test: Test D postemergence; format: in vivo, Hordeum vulgare; details: scale 0 to 100
Excerpt: as §1

galium = test: Test C preemergence; format: in vivo, Galium aparine; details: for Plant response rating (scale of 0 to 100 where 0 is no effect and 100 is complete control): Galium, preemergence; for Galium plant response rating (0 to 100): Preemergence, visual rating after 13 to 15 d
Excerpt: (§2) Seeds of plant species selected from blackgrass (Alopecurus myosuroides), ryegrass, Italian (Italian ryegrass, Lolium multiflorum), wheat (winter wheat, Triticum aestivum), galium (catchweed bedstraw, Galium aparine), corn (Zea mays), crabgrass, large (large crabgrass, Digitaria sanguinalis), foxtail, giant, (giant foxtail, Setaria faberii), johnsongrass (Sorghum halepense), lambsquarters (Chenopodium album), morningglory (Ipomoea coccinea), nutsedge, yellow (yellow nutsedge, Cyperus esculentus), pigweed (Amaranthus retroflexus), ragweed (common ragweed, Ambrosia elatior), soybean (Glycine max), barnyardgrass (Echinochloa crus-galli), oilseed rape (Brassica napus), waterhemp (common waterhemp, Amaranthus rudis), and velvetleaf (Abutilon theophrasti) were planted into a blend of loam soil and sand and treated preemergence with test chemicals formulated in a non-phytotoxic solvent mixture which included a surfactant. At the same time, plants selected from these crop and weed species and also chickweed (common chickweed, Stellaria media), oat, wild (wild oat, Avena fatua), and kochia (Kochia scoparia), were planted in pots containing Sunshine Redi-Earth® planting medium comprising spaghnum peat moss, vermiculite, starter nutrients and dolomitic limestone and treated with postemergence applications of test chemicals formulated in the same manner. Plants ranged in height from 2 to 18 cm (1- to 4-leaf stage) for postemergence treatments. […] A dash (-) response means no test result.

crabgrass, large = test: Test A postemergence; format: in vivo, Digitaria sanguinalis; details: Digitaria sanguinalis, post-emergence, 240 h, 0 to 100 scale (0 no effect, 100 complete control), approx. 10 d, read-out: Plant response rating, Crabgrass, Large
In short: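 Plant seeds in loam soil blended with sand, then apply test chemical preemergence as a directed soil spray; in parallel, spray potted seedlings (one- to two-leaf, 2 to 10 cm) postemergence. Both treatments use a non-phytotoxic solvent mixture with surfactant.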

deadnettle = test: Test D postemergence; format: in vivo, Lamium amplexicaule; details: scale 0 to 100
Excerpt: as §1

blackgrass = test: Test C preemergence; format: in vivo, Alopecurus myosuroides; details: for Plant response rating (scale of 0 to 100 where 0 is no effect and 100 is complete control): Blackgrass, preemergence; for Blackgrass plant response rating (0 to 100): Preemergence, visual rating after 13 to 15 d
Excerpt: as §2

oilseed rape = test: Test D preemergence; format: in vivo, Brassica napus; details: for Plant response rating: Oilseed Rape: scale 0 to 100; for Plant response rating (0 to 100), Oilseed Rape: 16 g ai/ha, 0 is no effect, 100 is complete control
Excerpt: as §1

ryegrass, Italian = test: Test A postemergence; format: in vivo, Lolium multiflorum; details: 0 to 100 scale (0 no effect, 100 complete control), approx. 10 d
In short: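 Visual injury score, 0 (no effect) to 100 (complete control), taken about 10 d after treatment against untreated greenhouse controls. Chemicals formulated in non-phytotoxic solvent plus surfactant; preemergence by directed soil spray onto sown loam/sand, postemergence onto one- to two-leaf plants.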

Row | SMILES | Plant response rating: Canarygrass (canarygrass; 31 g ai/ha) | Plant response rating: Canarygrass (canarygrass; 62 g ai/ha) | Plant response rating: Canarygrass (canarygrass; 125 g ai/ha) | Plant response rating: Barley, Spring (barley, spring; 31 g ai/ha) | Plant response rating: Barley, Spring (barley, spring; 62 g ai/ha) | Plant response rating: Barley, Spring (barley, spring; 125 g ai/ha) | Plant response rating: Barley, Winter (barley, winter; 31 g ai/ha) | Plant response rating: Barley, Winter (barley, winter; 62 g ai/ha) | Plant response rating: Barley, Winter (barley, winter; 125 g ai/ha) | Plant response rating (scale of 0 to 100 where 0 is no effect and 100 is complete control) (galium; 125 g ai/ha) | Plant response rating (scale of 0 to 100 where 0 is no effect and 100 is complete control) (galium; 250 g ai/ha) | Galium plant response rating (0 to 100) (galium; 31 g ai/ha) | Galium plant response rating (0 to 100) (galium; 62 g ai/ha) | Plant response rating: Deadnettle (deadnettle; 31 g ai/ha) | Plant response rating: Deadnettle (deadnettle; 62 g ai/ha) | Plant response rating: Deadnettle (deadnettle; 125 g ai/ha) | Plant response rating (scale of 0 to 100 where 0 is no effect and 100 is complete control) (blackgrass; 125 g ai/ha) | Plant response rating (scale of 0 to 100 where 0 is no effect and 100 is complete control) (blackgrass; 250 g ai/ha) | Plant response rating: Oilseed Rape (oilseed rape; 62 g ai/ha) | Plant response rating: Oilseed Rape (oilseed rape; 125 g ai/ha) | other results
1 | CCOc1nc(-c2ccc(F)cc2)nn1Cc1ccnc(C(F)(F)F)c1 [Compound 8, 4-[[5-ethoxy-3-(4-fluorophenyl)-1H-1,2,4-triazol-1-yl]methyl]-2-(trifluoromethyl)pyridine] | 50 | 100 | 100 | 25 | 30 | 35 | 20 | 30 | 35 | 100 | 100 | 80 | 100 | 75 | 80 | 95 | 90 | 90 | 60 | 100 | Plant response rating: Canarygrass (canarygrass; 250 g ai/ha): 100; Plant response rating: Barley, Spring (barley, spring; 250 g ai/ha): 35; Plant response rating: Barley, Winter (barley, winter; 250 g ai/ha): 35; pest or weed control at 125 g/ha (crabgrass, large; 125 g ai/ha): 100%; pest or weed control at 500 g/ha (crabgrass, large; 500 g ai/ha): 100%; Plant response rating: Deadnettle (deadnettle; 250 g ai/ha): 90; Blackgrass plant response rating (0 to 100) (blackgrass; 31 g ai/ha): 90; Blackgrass plant response rating (0 to 100) (blackgrass; 62 g ai/ha): 90; Plant response rating: Oilseed Rape (oilseed rape; 250 g ai/ha): 100
2 | FC(F)(F)COc1nc(-c2ccccc2)nn1Cc1ccnc(C(F)(F)F)c1 [Compound 24] | 50 | 60 | 75 | 25 | 30 | 35 | 15 | 25 | 25 | 50 | 90 | 5 | 30 | 60 | 70 | 85 | 90 | 90 | 55 | 70 | Plant response rating (0 to 100), Canarygrass (canarygrass): 55; Plant response rating: Barley, Spring (barley, spring; 16 g ai/ha): 20; Plant response rating: Barley, Winter (barley, winter; 16 g ai/ha): 15; Plant response rating, Ryegrass, Italian (ryegrass, Italian; 125 g ai/ha): 30; Plant response rating, Ryegrass, Italian (ryegrass, Italian; 500 g ai/ha): 60; Plant response rating: Deadnettle (deadnettle; 16 g ai/ha): 40; Blackgrass plant response rating (0 to 100) (blackgrass; 31 g ai/ha): 10; Blackgrass plant response rating (0 to 100) (blackgrass; 62 g ai/ha): 60; Plant response rating (0 to 100), Oilseed Rape (oilseed rape): 15
3 | CCOc1nc(-c2ccccc2)nn1Cc1ccnc(C(F)(F)F)c1 [Compound 27] | 55 | 75 | 98 | 25 | 35 | 35 | 25 | 30 | 35 | 95 | 95 | 90 | 95 | 75 | 95 | 100 | 50 | 90 | 60 | 80 | Plant response rating (0 to 100), Canarygrass (canarygrass): 35; Plant response rating: Barley, Spring (barley, spring; 16 g ai/ha): 25; Plant response rating: Barley, Winter (barley, winter; 16 g ai/ha): 15; Plant response rating, Ryegrass, Italian (ryegrass, Italian; 125 g ai/ha): 50; Plant response rating, Ryegrass, Italian (ryegrass, Italian; 500 g ai/ha): 90; Plant response rating: Deadnettle (deadnettle; 16 g ai/ha): 55; Blackgrass plant response rating (0 to 100) (blackgrass; 31 g ai/ha): 5; Blackgrass plant response rating (0 to 100) (blackgrass; 62 g ai/ha): 5; Plant response rating (0 to 100), Oilseed Rape (oilseed rape): 5
4 | COc1nc(-c2ccc(Cl)cc2)nn1Cc1ccnc(C(F)(F)F)c1 [Compound 28] | 40 | 60 | 65 | 20 | 20 | 25 | 15 | 20 | 25 |  |  |  |  | 60 | 70 | 75 |  |  | 15 | 15 | Plant response rating (0 to 100), Canarygrass (canarygrass): 10; Plant response rating: Barley, Spring (barley, spring; 16 g ai/ha): 15; Plant response rating: Barley, Winter (barley, winter; 16 g ai/ha): 10; Plant response rating, Ryegrass, Italian (ryegrass, Italian; 125 g ai/ha): 20; Plant response rating, Ryegrass, Italian (ryegrass, Italian; 500 g ai/ha): 50; Plant response rating: Deadnettle (deadnettle; 16 g ai/ha): 50; Plant response rating (0 to 100), Oilseed Rape (oilseed rape): 10
5 | Fc1ccc(-c2nc(OCC(F)(F)F)n(Cc3ccnc(C(F)(F)F)c3)n2)cc1 [Compound 30] | 70 | 100 | 100 | 40 | 35 | 45 | 25 | 30 | 40 | 95 | 95 | 60 | 65 | 75 | 90 | 100 | 90 | 90 | 35 | 55 | Plant response rating (0 to 100), Canarygrass (canarygrass): 50; Plant response rating: Barley, Spring (barley, spring; 16 g ai/ha): 30; Plant response rating: Barley, Winter (barley, winter; 16 g ai/ha): 20; Plant response rating, Ryegrass, Italian (ryegrass, Italian; 125 g ai/ha): 50; Plant response rating, Ryegrass, Italian (ryegrass, Italian; 500 g ai/ha): 80; Plant response rating: Deadnettle (deadnettle; 16 g ai/ha): 70; Blackgrass plant response rating (0 to 100) (blackgrass; 31 g ai/ha): 60; Blackgrass plant response rating (0 to 100) (blackgrass; 62 g ai/ha): 80; Plant response rating (0 to 100), Oilseed Rape (oilseed rape): 10
